{"source": "patent EP1105728B1", "about": "“MODULATING MULTIPLE LINEAGE KINASE PROTEINS” (CEPHALON, INC., priority 1998, dated 2000)", "key": {"motoneurons": {"tested_on": "motoneurons", "experiment": "Survival of rat spinal cord cultures enriched for motoneurons (calcein AM)", "format": "cell-based", "settings": "data not shown", "experimental": "Spinal cords were dissected from Sprague-Dawley rat fetuses (Charles River Laboratories, Wilmington. MA) of embryonic age (E) 14.5-15. […] Cells were seeded onto 96-well plates previously coated with poly-1-omithine and laminin (5 ug/ml each) at a density of 6 x 10^4 cells/cm^2 in chemically defined serum-free N2 medium (Bottenstein, et al., 1979, supra). In order to separate attachment from survival effects, addition of compounds to cultures was made after an initial attachment period of 1-3 h. Neuronal survival was assessed after 4 d by using calcein AM (Molecular Probes, Eugene, OR) in a fluorometric viability assay (Bozyczko-Coyne, et al., 1993, supra). Microscopic counts of neurons correlated directly with relative fluorescence values. In brief, culture medium was serially diluted in DPBS (Dulbeccos phosphate buffered saline) and a final concentration of 6 uM calcein AM stock was then added to each 96-well. The plates were incubated for 30 min at 37°C, followed by serial dilution washes in DPBS. The fluorescent signal was read using a plate-reading fluorimeter from Millipore (Cytofluor 2350) at excitation=485 nm and emission = 538 nm. […] Linearity of the fluorescence signal was verified for the concentration and incubation time for the range of cell densities in these experiments. […]"}, "trkA tyrosine kinase": {"molecular_target": "trkA tyrosine kinase (Homo sapiens, UniProt P04629)", "sequence (P04629 33-796)": "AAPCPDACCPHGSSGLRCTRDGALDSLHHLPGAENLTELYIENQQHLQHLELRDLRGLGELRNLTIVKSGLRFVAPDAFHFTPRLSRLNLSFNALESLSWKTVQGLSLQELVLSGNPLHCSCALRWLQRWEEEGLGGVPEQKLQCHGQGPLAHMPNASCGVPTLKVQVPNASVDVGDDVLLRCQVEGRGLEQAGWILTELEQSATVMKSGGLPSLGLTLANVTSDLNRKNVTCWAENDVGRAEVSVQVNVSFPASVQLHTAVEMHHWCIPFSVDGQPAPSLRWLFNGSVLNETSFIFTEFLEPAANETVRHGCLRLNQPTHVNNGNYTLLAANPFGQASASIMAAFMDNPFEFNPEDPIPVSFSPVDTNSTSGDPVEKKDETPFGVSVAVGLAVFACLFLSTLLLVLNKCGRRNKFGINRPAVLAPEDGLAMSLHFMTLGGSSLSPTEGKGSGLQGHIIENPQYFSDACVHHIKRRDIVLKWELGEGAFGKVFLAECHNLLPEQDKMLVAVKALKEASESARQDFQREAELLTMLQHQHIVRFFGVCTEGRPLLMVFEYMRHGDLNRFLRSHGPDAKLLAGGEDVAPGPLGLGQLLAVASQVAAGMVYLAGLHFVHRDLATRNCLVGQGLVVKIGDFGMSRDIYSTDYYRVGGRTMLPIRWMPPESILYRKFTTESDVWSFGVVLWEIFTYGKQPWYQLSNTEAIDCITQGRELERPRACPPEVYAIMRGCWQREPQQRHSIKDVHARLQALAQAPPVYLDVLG", "settings": "Maroney et al.; Kaneko et al.; cited from earlier work"}}}
{"smiles": "CCSCc1ccc2c(c1)c1c3c(c4c5cc(CSCC)ccc5n5c4c1n2C1CC(O)(C(=O)OC)C5(C)O1)CNC3=O", "note": "(centres unmarked) [III-3]", "values": [{"measurement": "potency in mediating survival in motor neuron-enriched cultures relative to K-252a", "setting": "motoneurons", "result": "approximately fivefold"}, {"measurement": "inhibitory activity against trkA tyrosine kinase", "setting": "trkA tyrosine kinase", "result": "did not exhibit inhibitory activity"}]}
